Experimental data published in ChEMBL document CHEMBL4673280, “Discovery and SAR studies of 2-alkyl-3-phenyl-2,4,5,6,7,8-hexahydropyrazolo[3,4-d]azepines as 5-HT inhibitors leading to the identification of a clinical candidate” (Bioorg Med Chem Lett, 2021).
pKi: −log10 of the molar value.

Key:
[1] = biological target: 5-hydroxytryptamine receptor 7 (Rattus norvegicus, UniProt P32305); assay: Displacement of [3H]-CT from rat 5-HT7 receptor expressed in HEK293 cells by competitive radioligand binding assay; type: cell-based
[2] = biological target: 5-hydroxytryptamine receptor 2A (Homo sapiens, UniProt P28223); assay: Displacement of [3H]-ketanserin from human 5-HT2A receptor by competitive radioligand binding assay
[3] = biological target: 5-hydroxytryptamine receptor 2B (Homo sapiens, UniProt P41595); assay: Displacement of [3H]-ketanserin from human 5-HT2B receptor by competitive radioligand binding assay
[4] = biological target: T1, 5-hydroxytryptamine receptor 2C (Homo sapiens, UniProt P28335); assay: Displacement of [3H]-ketanserin from human 5-HT2C receptor by competitive radioligand binding assay
T1 sequence (P28335 whole entry): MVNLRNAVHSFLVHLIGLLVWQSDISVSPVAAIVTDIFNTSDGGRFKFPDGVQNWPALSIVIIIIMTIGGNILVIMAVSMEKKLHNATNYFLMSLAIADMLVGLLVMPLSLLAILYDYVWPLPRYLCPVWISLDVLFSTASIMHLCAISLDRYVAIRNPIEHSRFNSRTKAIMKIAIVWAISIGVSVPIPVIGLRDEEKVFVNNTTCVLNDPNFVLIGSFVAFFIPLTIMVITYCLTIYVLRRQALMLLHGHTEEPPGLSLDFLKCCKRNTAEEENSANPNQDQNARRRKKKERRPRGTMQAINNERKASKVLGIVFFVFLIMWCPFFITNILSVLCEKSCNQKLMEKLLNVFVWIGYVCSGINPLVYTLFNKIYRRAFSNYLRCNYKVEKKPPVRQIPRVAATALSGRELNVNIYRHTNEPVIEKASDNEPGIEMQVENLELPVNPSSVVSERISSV

[5] = biological target: T2, Adrenergic receptor alpha-1 (Rattus norvegicus, UniProt P15823+P23944+P43140); assay: Displacement of […] from alpha1 adrenergic receptor in rat cortex membrane incubated for 60 mins by competitive radioligand binding assay; type: cell membranes
T2 sequence (P15823 whole entry): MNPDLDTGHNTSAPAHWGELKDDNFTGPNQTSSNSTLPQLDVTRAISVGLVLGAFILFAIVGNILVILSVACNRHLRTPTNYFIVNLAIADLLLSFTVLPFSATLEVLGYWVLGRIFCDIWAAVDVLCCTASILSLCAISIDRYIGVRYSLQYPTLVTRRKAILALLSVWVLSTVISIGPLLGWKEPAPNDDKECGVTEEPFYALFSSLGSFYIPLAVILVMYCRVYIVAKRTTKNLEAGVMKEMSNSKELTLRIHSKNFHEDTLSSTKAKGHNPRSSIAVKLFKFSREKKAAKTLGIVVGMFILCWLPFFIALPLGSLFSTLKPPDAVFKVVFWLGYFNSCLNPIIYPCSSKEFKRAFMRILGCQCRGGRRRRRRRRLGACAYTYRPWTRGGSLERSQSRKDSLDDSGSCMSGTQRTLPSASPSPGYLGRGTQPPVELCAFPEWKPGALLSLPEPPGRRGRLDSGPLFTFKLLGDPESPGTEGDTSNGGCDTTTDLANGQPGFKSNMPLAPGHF
T2 sequence (P23944 whole entry): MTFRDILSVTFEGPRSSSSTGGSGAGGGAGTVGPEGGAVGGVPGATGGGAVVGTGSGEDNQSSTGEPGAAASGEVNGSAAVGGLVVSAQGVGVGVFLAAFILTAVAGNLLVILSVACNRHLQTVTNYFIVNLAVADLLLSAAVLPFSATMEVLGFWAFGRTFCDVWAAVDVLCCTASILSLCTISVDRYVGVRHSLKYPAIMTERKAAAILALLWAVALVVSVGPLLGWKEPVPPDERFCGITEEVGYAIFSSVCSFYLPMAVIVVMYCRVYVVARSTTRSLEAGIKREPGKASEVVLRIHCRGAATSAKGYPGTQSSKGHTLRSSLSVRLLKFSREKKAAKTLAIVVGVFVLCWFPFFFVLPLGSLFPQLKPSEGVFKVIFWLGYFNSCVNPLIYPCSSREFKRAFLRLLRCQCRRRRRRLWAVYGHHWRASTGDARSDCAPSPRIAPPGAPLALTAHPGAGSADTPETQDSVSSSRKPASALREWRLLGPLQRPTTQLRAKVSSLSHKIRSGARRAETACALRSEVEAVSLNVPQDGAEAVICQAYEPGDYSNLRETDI
T2 sequence (P43140 whole entry): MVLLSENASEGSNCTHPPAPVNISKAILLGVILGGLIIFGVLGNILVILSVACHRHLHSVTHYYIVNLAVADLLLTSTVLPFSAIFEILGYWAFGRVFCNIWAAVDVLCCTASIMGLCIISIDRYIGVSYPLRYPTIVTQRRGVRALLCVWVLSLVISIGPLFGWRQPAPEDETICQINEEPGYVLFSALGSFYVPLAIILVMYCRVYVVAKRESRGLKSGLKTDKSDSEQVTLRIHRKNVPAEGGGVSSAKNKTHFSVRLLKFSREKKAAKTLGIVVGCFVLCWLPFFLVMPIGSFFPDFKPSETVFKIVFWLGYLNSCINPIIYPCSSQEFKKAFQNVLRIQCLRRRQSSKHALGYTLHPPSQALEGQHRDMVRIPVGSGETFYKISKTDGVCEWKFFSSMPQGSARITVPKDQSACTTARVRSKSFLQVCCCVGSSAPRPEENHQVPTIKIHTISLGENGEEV

Sequence of 5-hydroxytryptamine receptor 2A (P28223 whole entry): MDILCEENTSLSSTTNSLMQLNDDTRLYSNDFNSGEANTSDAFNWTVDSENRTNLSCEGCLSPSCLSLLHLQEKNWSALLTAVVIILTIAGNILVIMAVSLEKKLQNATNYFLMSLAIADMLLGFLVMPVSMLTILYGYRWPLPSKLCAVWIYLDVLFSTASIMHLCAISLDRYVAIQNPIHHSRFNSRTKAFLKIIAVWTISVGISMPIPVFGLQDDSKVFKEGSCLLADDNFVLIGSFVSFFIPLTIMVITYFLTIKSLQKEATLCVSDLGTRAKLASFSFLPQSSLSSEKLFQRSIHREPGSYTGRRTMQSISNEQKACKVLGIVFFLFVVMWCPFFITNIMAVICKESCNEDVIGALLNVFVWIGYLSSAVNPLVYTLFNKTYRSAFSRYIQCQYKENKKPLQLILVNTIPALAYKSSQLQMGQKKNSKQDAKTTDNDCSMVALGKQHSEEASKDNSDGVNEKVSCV
Sequence of 5-hydroxytryptamine receptor 2B (P41595 whole entry): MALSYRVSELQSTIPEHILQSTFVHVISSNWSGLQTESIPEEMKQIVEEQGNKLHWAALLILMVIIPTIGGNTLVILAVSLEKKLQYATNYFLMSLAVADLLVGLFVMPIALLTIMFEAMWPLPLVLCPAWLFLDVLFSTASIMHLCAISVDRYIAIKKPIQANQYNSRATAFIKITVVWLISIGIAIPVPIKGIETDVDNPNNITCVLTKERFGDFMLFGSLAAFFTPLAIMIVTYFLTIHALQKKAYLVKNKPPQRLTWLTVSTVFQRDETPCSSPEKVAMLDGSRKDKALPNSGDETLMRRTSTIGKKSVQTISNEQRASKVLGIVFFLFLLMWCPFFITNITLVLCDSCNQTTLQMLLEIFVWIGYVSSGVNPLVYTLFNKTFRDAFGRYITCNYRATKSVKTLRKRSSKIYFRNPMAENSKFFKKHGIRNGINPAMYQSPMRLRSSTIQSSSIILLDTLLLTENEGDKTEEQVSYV
Sequence of 5-hydroxytryptamine receptor 7 (P32305 whole entry): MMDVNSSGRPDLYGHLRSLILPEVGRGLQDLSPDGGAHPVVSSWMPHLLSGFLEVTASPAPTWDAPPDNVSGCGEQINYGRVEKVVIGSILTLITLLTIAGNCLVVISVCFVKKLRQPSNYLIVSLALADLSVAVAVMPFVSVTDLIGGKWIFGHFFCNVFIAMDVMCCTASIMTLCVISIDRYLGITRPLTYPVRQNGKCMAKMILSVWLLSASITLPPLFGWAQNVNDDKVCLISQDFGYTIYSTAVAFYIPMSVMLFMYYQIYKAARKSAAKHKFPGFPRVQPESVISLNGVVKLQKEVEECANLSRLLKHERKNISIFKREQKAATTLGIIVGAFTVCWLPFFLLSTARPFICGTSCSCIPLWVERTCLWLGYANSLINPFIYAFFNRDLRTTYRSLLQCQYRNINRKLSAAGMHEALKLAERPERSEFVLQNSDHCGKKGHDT

pKi [1]	pKi [2]	pKi [3]	pKi [4]	Ki [5] [nM]	SMILES
6.40	7.82	7.37	6.66		CC(C)n1nc2c(c1-c1ccc(Cl)cc1Cl)CCNCC2
	9.00	8.70		4	Cc1ccc(-c2c3c(nn2C(C)C)CCNCC3)cc1
	7.72	7.37	7.07		CC(C)(C)n1nc2c(c1-c1ccccc1)CCNCC2
7.05	8.30		6.41	240	CC(C)n1nc2c(c1-c1ccc(C#N)cc1)CCNCC2
5.40	7.41	7.51	6.04		CC(C)n1nc2c(c1-c1ccc(Cl)c(Cl)c1)CCNCC2
6.82	6.22	7.82	5.05	10000	c1ccc(-c2c3c(nn2-c2ccccc2)CCNCC3)cc1
	8.22				Fc1ccc(-c2c3c(nn2C2CC2)CCNCC3)cc1
7.70	7.52	7.70	7.52	600	c1ccc(-c2c3c(nn2C2CC2)CCNCC3)cc1
7.74	8.52	9.00			COc1ccc(-c2c3c(nn2C(C)C)CCNCC3)cc1
7.40	8.52	7.62	6.68	16	CNc1ccc(-c2c3c(nn2C(C)C)CCNCC3)cc1
